Measured values published in publication PMC7343212, “Lactoferrin-Hexon Interactions Mediate CAR-Independent Adenovirus Infection of Human Respiratory Cells” (Journal of Virology, 2020).
Bridges are numbered along the chain shown (N, C = ends). Where no end group is shown, it is not given here.

What was measured:
HAdV-C5 hexon = target: T1, HAdV-C5 hexon (Human adenovirus C serotype 5, UniProt P04133); assay: Surface plasmon resonance, HAdV-C5 hexon immobilized; format: binding; details: SPR Biacore T200, HAdV-C5 hexon on CM5 chip, analyte hLfcin1-49, 2-fold series 8 nM to 2 μM, HBS-EP+ pH 7.4, 25°C; average from three independent measurements
T1 construct: the top phase containing soluble viral components was recovered, and HAdV hexons were purified using monoclonal hexon antibodies; made in house; host or cells: A549 cells infected with wild-type HAdV-C5 (strain Ad75)
T1 sequence (P04133 2-952 limits assumed): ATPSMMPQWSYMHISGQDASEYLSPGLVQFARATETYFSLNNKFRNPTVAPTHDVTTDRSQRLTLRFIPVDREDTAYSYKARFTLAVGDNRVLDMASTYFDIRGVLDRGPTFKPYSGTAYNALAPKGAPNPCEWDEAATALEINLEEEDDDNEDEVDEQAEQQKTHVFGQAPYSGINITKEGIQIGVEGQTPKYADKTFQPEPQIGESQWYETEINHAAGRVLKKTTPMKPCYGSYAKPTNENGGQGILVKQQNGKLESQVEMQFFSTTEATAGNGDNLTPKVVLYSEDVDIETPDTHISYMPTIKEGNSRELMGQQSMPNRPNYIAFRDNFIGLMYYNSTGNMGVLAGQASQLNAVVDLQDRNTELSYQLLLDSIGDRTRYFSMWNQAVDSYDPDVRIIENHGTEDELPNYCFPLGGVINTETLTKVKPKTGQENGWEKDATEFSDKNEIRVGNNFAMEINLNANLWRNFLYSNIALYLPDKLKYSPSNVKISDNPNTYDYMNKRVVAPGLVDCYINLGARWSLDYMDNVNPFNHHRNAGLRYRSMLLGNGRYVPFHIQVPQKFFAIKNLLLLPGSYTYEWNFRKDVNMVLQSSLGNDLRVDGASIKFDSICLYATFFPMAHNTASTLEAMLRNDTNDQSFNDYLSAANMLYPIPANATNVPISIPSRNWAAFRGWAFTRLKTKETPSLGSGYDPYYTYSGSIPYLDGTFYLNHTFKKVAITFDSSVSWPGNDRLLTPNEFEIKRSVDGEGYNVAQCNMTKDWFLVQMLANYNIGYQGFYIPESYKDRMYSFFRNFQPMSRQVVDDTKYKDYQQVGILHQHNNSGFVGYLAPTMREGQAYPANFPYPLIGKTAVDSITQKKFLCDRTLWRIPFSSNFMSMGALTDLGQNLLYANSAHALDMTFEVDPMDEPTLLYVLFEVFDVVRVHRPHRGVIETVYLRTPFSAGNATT
Protocol: Ten flasks of 70% confluent A549 cells were infected with HAdV-C5, HAdV-A31, or HAdV-B35. After initial inoculation, unbound virus was washed away, and approximately 30 ml of fresh medium (DMEM plus 20 mM HEPES [N-2-hydroxyethylpiperazine-NN-2-ethanesulfonic acid] plus 5% FBS) was added. At 48 h after infection, the cells were harvested by scraping into a small volume of DMEM, centrifuged, and resuspended in 6 ml of DMEM. The collected cells were lysed and the sample cleared by centrifugation. Virus was separated from soluble viral components by a CsCl gradient, as described previously ([59]). After ultracentrifugation, the top phase containing soluble viral components was recovered, and HAdV hexons were purified using monoclonal hexon antibodies (MAB8052) covalently attached to magnetic protein A/G beads (Pierce) using dimethyl pimelimidate (DMP) according to the manufacturer’s instructions. Bound hexons were washed three times using PBS to remove protein bound unspecifically, followed by elution in 50 μl of 200 mM glycine buffer at pH 2.5.
CM5 sensor chips, an amine-coupling kit, and HBS-EP+ buffer (10 mM HEPES, 150 mM NaCl, 3 mM EDTA, and 0.005% [vol/vol] surfactant P20 [pH 7.4]) were all purchased from GE Healthcare. All surface plasmon resonance (SPR) experiments were performed at 25°C in HBS-EP+ running buffer with adenovirus hexons immobilized on the sensor surface. […]

[1] = test system: A549 cells (HAdV-C5 virions); assay: 35S-labeled HAdV-C5 virion binding to A549 cells; format: cell-based, Human; details: at this concentration (2 μM), Fig. 1C
Protocol: A549 cells were detached using phosphate-buffered saline (PBS) plus 0.05% EDTA with slow rocking at 37°C. Once detached, the cells were centrifuged at 1,500 × g for 5 min, resuspended in growth medium to about 2 × 10^6 cells/ml, and allowed to recover at 37°C, slowly rocking to keep the cells in suspension. While recovering, the HAdV-Lfcin complex was set up. Lfcin (2 μM), or an equivalent volume of PBS, was mixed with ^35S-labeled HAdV (15,000 particles/cell) in medium and left on ice at 4°C for 60 min. After 60 min of recovery, the cells were counted, and 150,000 viable cells were added to each well of a 96-V-shaped-well plate and centrifuged for 5 min at 1,500 × g. Once pelleted, the cells were resuspended in the HAdV-Lfcin solution or in HAdV-PBS solution and incubated on ice for 60 min at 4°C. After 60 min, the cells were pelleted and washed once in medium and once in PBS before the addition of scintillation fluid and quantification using a Wallac 1450 Microbeta counter (Trilux).

[2] = test system: human respiratory epithelial A549 cells (HAdV-C5_GFP); assay: HAdV-C5_GFP transduction of A549 cells; format: cell-based; details: at this concentration (2 μM), Fig. 1D
Text: For all transduction experiments, GFP-expressing vectors were used. The HAdV_GFP vector was purchased from Vector Development Laboratory. All mutated HAdV-C5 vectors were generated in the laboratory of A. Plückthun at the University of Zürich using the AdEasy system (Agilent) to contain an internal ribosome entry site (IRES)-luciferase (Luc)-GFP cassette for detection of transduction. To investigate the role of integrins in transduction, HAdV-C5-IRES-GFP with an intact RGD loop in the penton base protein (-DMNDHAIRGDTFATRAE-) and HAdV-C5-ΔRGD-IRES-GFP (-DMNDTSRAEEKRAE-), known not to bind integrins ([40]), were generated. To determine the binding site for hLF/hLfcin on the hexon protein, hexon-mutated vectors were produced with HVR-1 of HAdV-C5 ([43]) replaced with the corresponding sequence of HAdV-A31, as well as a HAdV-C5 vector mutated in HVR-7 ([44]).
For experiments in A549 cells, 15,000 cells were seeded into a black 96-well plate with a transparent bottom. For experiments with CHO-K1 cells, 20,000 cells were seeded. After 24 h, HAdV-C5 vectors was complexed with 2 μM Lfcin or with ∼12 μM (1 mg/ml) of LF and, after 60 min, added to the cells on ice. The blocking of CAR using soluble HAdV-C5 fiber knob was performed using 10 μg/ml of recombinant knob. After another 60 min, unbound complex was washed away using Dulbecco’s modified Eagle’s medium (DMEM), followed by final addition of fresh medium. After 44 h, the cells were fixed using 4% paraformaldehyde (PFA) for 10 min, and GFP expression was imaged using a Trophos system (Luminy Biotech Entreprises). For the hexon chimeric viruses, transduction was instead quantified by measuring the luciferase activity at 44 h postinfection using a Pierce luciferase glow assay kit.

| Substance | Kd (HAdV-C5 hexon) | effect on HAdV-C5 binding to A549 cells (in words) [1] | effect on HAdV-C5 transduction of A549 cells (in words) [2] |
| --- | --- | --- | --- |
| GRRRRSVQWCAVSQPEATKCFQWQRNMRKVRGPPVSCIKRDSPIQCIQA (disulfide 10-46, 20-37) [hLfcin1-49, human lactoferricin] | 730 ± 206 nM | – | – |
| bLfcin17-31: bovine lactoferricin 17-31, standard solid-phase peptide synthesis (FKCRRWQWRMKKLGA; UniProt P24627 36-50, looked up, fragment) [reference compound] | – | no or little effect | no or little effect |
| hLfcin18-42: human lactoferricin 18-42, solid-phase synthesis, cyclized in a two-step approach (KCFQWQRNMRKVRGPPVSCIKRDSP; not fully specified (bridges); also: cyclized in a two-step approach, kind and places not given here; UniProt P02788 37-61, looked up, fragment) | – | no or little effect | no or little effect |
| bLfcin17-42: bovine lactoferricin 17-42, purchased from the Center for Food Technology (FKCRRWQWRMKKLGAPSITCVRRAFA; ends and bridges not checked; cysteine pairing not given here; UniProt P24627 36-61, looked up, fragment) [reference compound] | – | no or little effect | no or little effect |
